Measurements as given in patent US6048875A, “Benzothiophene, benzofuran and indole compounds” (Adir et Compagnie, priority 1998, dated 2000).
pIC50: −log10 of the molar value.

target: recombinant active human PAI-1 (Homo sapiens, UniProt P05121); test: Inhibition of the activity of PAI-1 (fibrin clot formation and breakdown monitored by turbidity in microplate wells; fibrinolytic activity); format: biochemical; details: in vitro, pH 7.4 phosphate buffer, clot absorbance two hours after fibrin formation, 2 nM PAI-1 solution, tissue plasminogen activator, fibrinogen, human thrombin, read-out: fibrinolytic activity IC50 (concentration of product that inhibits PAI-1 activity by 50%)
Sequence (P05121 24-402): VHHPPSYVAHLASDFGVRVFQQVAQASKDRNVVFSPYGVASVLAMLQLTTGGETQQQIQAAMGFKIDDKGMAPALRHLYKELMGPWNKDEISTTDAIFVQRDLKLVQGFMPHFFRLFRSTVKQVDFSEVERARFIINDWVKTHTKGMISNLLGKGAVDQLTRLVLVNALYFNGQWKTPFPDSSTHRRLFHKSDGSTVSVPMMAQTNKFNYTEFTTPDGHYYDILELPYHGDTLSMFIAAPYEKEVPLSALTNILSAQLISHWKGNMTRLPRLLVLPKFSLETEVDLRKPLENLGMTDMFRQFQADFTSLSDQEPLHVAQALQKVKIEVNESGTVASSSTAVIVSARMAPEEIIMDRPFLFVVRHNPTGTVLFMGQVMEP

| Compound | pIC50 |
| --- | --- |
| O=C(O)/C(=C/c1sc2cc(OCc3ccccc3)c(OCc3ccccc3)cc2c1Oc1ccc(-c2ccncc2)cc1)c1ccncc1 [Example 66] | 5.66 |
| COc1ccc(Oc2c(/C=C(/C(=O)O)c3ccncc3)sc3cc(OCc4ccccc4)c(OCc4ccccc4)cc23)cc1 | 4.89 |
| O=C(O)/C(=C/c1sc2cc(OCc3ccccc3)c(OCc3ccccc3)cc2c1Oc1ccc(OCc2ccccc2)cc1)c1ccncc1 | 5.15 |
| COc1cc2sc(/C=C(/C(=O)O)c3ccncc3)c(Oc3cccnc3)c2cc1OCc1ccccc1 [Example 67] | 5.30 |
